Laboratory results from PubChem BioAssay AID248 (DTP/NCI, 2004).
Where “and” joins values, the source holds several entries; their conditions need not be identical. Equal entries are not always repeated. Toxic doses and inconclusive results are not listed. No stated cut-off is given here; in the data, active means T/C of 150% or more; inactive means T/C below 125%.

Tested on: L1210 leukemia ip in BDF1 mice, survival T/C
Experiment: NCI In Vivo Anticancer Drug Screen. Data for tumor model L1210 Leukemia (intraperitoneal) in B6D2F1 (BDF1) mice
Settings: endpoint: mean survival time, higher = longer survival
In short: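 Transplanted-tumor mice were given test agent; controls received vehicle only. Survival readings from the two groups were divided (treated over control).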

[1] = dose: 100.0 mg/kg/injection, schedule: Q01DX009 (ip), vehicle: saline
[2] = dose: 200.0 mg/kg/injection, schedule: Q01DX009 (ip), vehicle: saline
[3] = dose: 400.0 mg/kg/injection, schedule: Q01DX009 (ip), vehicle: saline
[4] = dose: 100.0 mg/kg/injection, schedule: Q04DX003 (ip), vehicle: saline with Tween-80
[5] = dose: 100.0 mg/kg/injection, schedule: Q04DX003 (ip), vehicle: Klucel (hydroxypropylcellulose) (HPC)
[6] = dose: 200.0 mg/kg/injection, schedule: Q04DX003 (ip), vehicle: Klucel (hydroxypropylcellulose) (HPC)
[7] = dose: 400.0 mg/kg/injection, schedule: Q04DX003 (ip), vehicle: Klucel (hydroxypropylcellulose) (HPC)
[8] = dose: 100.0 mg/kg/injection, schedule: Q04DX002 (ip), vehicle: saline with Tween-80
[9] = dose: 200.0 mg/kg/injection, schedule: Q04DX002 (ip), vehicle: saline with Tween-80
[10] = dose: 50.0 mg/kg/injection, schedule: Q01DX009 (ip), vehicle: Klucel (hydroxypropylcellulose) (HPC)
[11] = dose: 100.0 mg/kg/injection, schedule: Q01DX009 (ip), vehicle: Klucel (hydroxypropylcellulose) (HPC)

Measured: T/C

CCOC(=O)C1CCC(C(=O)OCC)N1Cc1ccccc1 (centres undefined)
inactive: [1] 101 % of control | [2] 104 % of control | [3] 108 % of control

Cc1ccc(S(=O)(=O)N/N=C(/c2ccccc2)c2cccs2)cc1
inactive: dose: 100.0 mg/kg/injection, schedule: Q01DX009 (ip), vehicle: saline with Tween-80 102 % of control | [4] 90 % of control | dose: 200.0 mg/kg/injection, schedule: Q01DX009 (ip), vehicle: saline with Tween-80 91 % of control | dose: 200.0 mg/kg/injection, schedule: Q04DX003 (ip), vehicle: saline with Tween-80 96 % of control | dose: 400.0 mg/kg/injection, schedule: Q04DX003 (ip), vehicle: saline with Tween-80 96 % of control

CCCC(=O)N(CC(C)C)CC(C)C
inactive: [5] 101 % of control | [6] 95 % of control | [7] 97 % of control

COc1cc(Cl)ccc1NC(=O)Oc1ccc(C=O)cc1OC
inactive: dose: 100.0 mg/kg/injection, schedule: Q04DX002 (ip), vehicle: Klucel (hydroxypropylcellulose) (HPC) 101 % of control | dose: 200.0 mg/kg/injection, schedule: Q04DX002 (ip), vehicle: Klucel (hydroxypropylcellulose) (HPC) 90 % of control | dose: 400.0 mg/kg/injection, schedule: Q04DX002 (ip), vehicle: Klucel (hydroxypropylcellulose) (HPC) 93 % of control

CN=NCc1ccccc1
inactive: dose: 90.0 mg/kg/injection, schedule: Q04DX002 (ip), vehicle: saline with Tween-80 106 % of control | [8] 108 % of control and 122 % of control | dose: 133.0 mg/kg/injection, schedule: Q04DX002 (ip), vehicle: saline with Tween-80 120 % of control | [9] 106 % of control and 111 % of control | dose: 300.0 mg/kg/injection, schedule: Q04DX002 (ip), vehicle: saline with Tween-80 117 % of control

COC(=O)C(C)=C1CCCCC1
inactive: [1] 106 % of control | dose: 100.0 mg/kg/injection, schedule: Q04DX003 (ip), vehicle: saline 93 % of control | [2] 96 % of control | dose: 200.0 mg/kg/injection, schedule: Q04DX003 (ip), vehicle: saline 98 % of control | [3] 96 % of control | dose: 400.0 mg/kg/injection, schedule: Q04DX003 (ip), vehicle: saline 95 % of control

CCN(CC)Cc1nc2nc(Cl)c(Cl)nc2[nH]1
inactive: dose: 25.0 mg/kg/injection, schedule: Q01DX009 (ip), vehicle: saline with Tween-80 97 % of control | dose: 50.0 mg/kg/injection, schedule: Q01DX009 (ip), vehicle: saline with Tween-80 105 % of control | [4] 99 % of control

CSc1ccc(N=Cc2ccc3c(c2)OCO3)cc1
inactive: [10] 103 % of control | [11] 97 % of control | [5] 102 % of control | dose: 200.0 mg/kg/injection, schedule: Q01DX009 (ip), vehicle: Klucel (hydroxypropylcellulose) (HPC) 99 % of control | [6] 107 % of control | [7] 94 % of control

O=C(/C=C/c1ccccc1)NC(=S)Nc1nccs1
inactive: dose: 100.0 mg/kg/injection, schedule: Q01DX009 (ip), vehicle: carboxymethylcellulose (CMC) 100 % of control and 104 % of control | dose: 100.0 mg/kg/injection, schedule: Q04DX002 (ip), vehicle: carboxymethylcellulose (CMC) 97 % of control and 103 % of control | dose: 100.0 mg/kg/injection, schedule: Q04DX003 (ip), vehicle: carboxymethylcellulose (CMC) 100 % of control | dose: 200.0 mg/kg/injection, schedule: Q01DX009 (ip), vehicle: carboxymethylcellulose (CMC) 100 % of control and 111 % of control | dose: 200.0 mg/kg/injection, schedule: Q04DX002 (ip), vehicle: carboxymethylcellulose (CMC) 99 % of control and 103 % of control | dose: 200.0 mg/kg/injection, schedule: Q04DX003 (ip), vehicle: carboxymethylcellulose (CMC) 96 % of control | dose: 400.0 mg/kg/injection, schedule: Q01DX009 (ip), vehicle: carboxymethylcellulose (CMC) 96 % of control and 102 % of control | dose: 400.0 mg/kg/injection, schedule: Q04DX002 (ip), vehicle: carboxymethylcellulose (CMC) 103 % of control and 87 % of control | dose: 400.0 mg/kg/injection, schedule: Q04DX003 (ip), vehicle: carboxymethylcellulose (CMC) 93 % of control

O=C(c1ccccc1)N(CCCl)C(=O)N(CCCl)C(=O)c1ccccc1
inactive: dose: 75.0 mg/kg/injection, schedule: Q01DX001 (ip), vehicle: carboxymethylcellulose (CMC) 104 % of control | dose: 75.0 mg/kg/injection, schedule: Q01DX009 (ip), vehicle: saline with Tween-80 95 % of control | dose: 75.0 mg/kg/injection, schedule: Q04DX003 (ip), vehicle: saline with Tween-80 91 % of control | dose: 150.0 mg/kg/injection, schedule: Q01DX001 (ip), vehicle: carboxymethylcellulose (CMC) 101 % of control | dose: 150.0 mg/kg/injection, schedule: Q01DX009 (ip), vehicle: saline with Tween-80 98 % of control | dose: 150.0 mg/kg/injection, schedule: Q04DX003 (ip), vehicle: saline with Tween-80 92 % of control | dose: 300.0 mg/kg/injection, schedule: Q01DX001 (ip), vehicle: carboxymethylcellulose (CMC) 103 % of control | dose: 300.0 mg/kg/injection, schedule: Q04DX003 (ip), vehicle: saline with Tween-80 89 % of control

COC(=O)[C@@H]1c2cc3c(c(O)c2[C@@H](OC2OC(C)C(OC)C(C)(OC)C2OC)C[C@]1(C)O)C(=O)c1c(O)cc2c(c1C3=O)O[C@H]1O[C@]2(C)[C@H](O)[C@@H](N(C)C)[C@@H]1O (some centres undefined)
inactive: dose: 0.2 mg/kg/injection, schedule: Q01DX Z (ip), vehicle: saline 98 % of control | dose: 0.25 mg/kg/injection, schedule: Q01DX009 (ip), vehicle: saline 102 % of control | dose: 0.3 mg/kg/injection, schedule: Q01DX Z (ip), vehicle: saline 116 % of control | dose: 0.44 mg/kg/injection, schedule: Q01DX Z (ip), vehicle: saline 107 % of control | dose: 0.5 mg/kg/injection, schedule: Q01DX009 (ip), vehicle: saline 107 % of control | dose: 0.67 mg/kg/injection, schedule: Q01DX Z (ip), vehicle: saline 112 % of control | dose: 0.8 mg/kg/injection, schedule: Q## X008 (ip), vehicle: saline 113 % of control | dose: 0.8 mg/kg/injection, schedule: Q## X032 (ip), vehicle: saline 113 % of control | dose: 1.0 mg/kg/injection, schedule: Q01DX001 (ip), vehicle: saline 115 % of control | dose: 1.0 mg/kg/injection, schedule: Q01DX009 (ip), vehicle: saline 106 % of control | dose: 1.0 mg/kg/injection, schedule: Q01DX Z (ip), vehicle: saline 107 % of control | dose: 1.5 mg/kg/injection, schedule: Q01DX Z (ip), vehicle: carboxymethylcellulose (CMC) 116 % of control | dose: 2.0 mg/kg/injection, schedule: Q01DX001 (ip), vehicle: saline 120 % of control | dose: 2.0 mg/kg/injection, schedule: Q01DX009 (ip), vehicle: saline 86 % of control | dose: 2.0 mg/kg/injection, schedule: Q01DX Z (ip), vehicle: carboxymethylcellulose (CMC) 102 % of control | dose: 4.0 mg/kg/injection, schedule: Q01DX001 (ip), vehicle: saline 114 % of control | dose: 5.0 mg/kg/injection, schedule: Q01DX001 (ip), vehicle: saline 118 % of control | dose: 8.0 mg/kg/injection, schedule: Q01DX001 (ip), vehicle: saline 108 % of control | dose: 8.0 mg/kg/injection, schedule: Q## X008 (ip), vehicle: saline 109 % of control | dose: 8.0 mg/kg/injection, schedule: Q## X032 (ip), vehicle: saline 103 % of control | dose: 10.0 mg/kg/injection, schedule: Q01DX001 (ip), vehicle: saline 109 % of control

Clc1cc(CBr)c(CBr)cc1Cl
inactive: dose: 12.5 mg/kg/injection, schedule: Q04DX003 (ip), vehicle: saline with Tween-80 94 % of control | dose: 25.0 mg/kg/injection, schedule: Q04DX003 (ip), vehicle: saline with Tween-80 97 % of control | dose: 50.0 mg/kg/injection, schedule: Q04DX003 (ip), vehicle: saline with Tween-80 91 % of control

Fc1ccc(NC(=S)NCCN2CCCC2)cc1
inactive: dose: 25.0 mg/kg/injection, schedule: Q01DX009 (ip), vehicle: Klucel (hydroxypropylcellulose) (HPC) 100 % of control | [10] 117 % of control | [11] 100 % of control and 102 % of control

CCc1cccc(OC/C=C(\C)CCC2OC2(C)CC)c1 (centres undefined)
inactive: [8] 100 % of control | [9] 100 % of control | dose: 400.0 mg/kg/injection, schedule: Q04DX002 (ip), vehicle: saline with Tween-80 94 % of control

Cc1cc(=O)[nH]c2c(OCOc3cccc4c(C)cc(=O)[nH]c34)cccc12
inactive: [5] 97 % of control | [6] 100 % of control | [7] 94 % of control
